Measurements: ChEMBL document CHEMBL2311414, “Synthesis, antimalarial activity and cytotoxic potential of new monocarbonyl analogues of curcumin” (Bioorg Med Chem Lett, 2013)
pIC50: −log10 of the molar value.

Experiments:
Plasmodium falciparum [1] = experiment: Antimalarial activity against chloroquine-sensitive Plasmodium falciparum D6 infected in RBC assessed as plasmodial LDH activity after 72 hrs; assay type: functional, organism-based; details: for pIC50: Plasmodium falciparum, D6, 72 h, read-out: IC50
[2] = Selectivity index, ratio of IC50 for african green monkey Vero cells to IC50 for chloroquine-resistant Plasmodium falciparum W2; assay type: toxicity, cell-based; details: read-out: Ratio IC50
Plasmodium falciparum [3] = experiment: Antimalarial activity against chloroquine-resistant Plasmodium falciparum W2 infected in RBC assessed as plasmodial LDH activity after 72 hrs; assay type: functional, organism-based; details: for pIC50: Plasmodium falciparum, W2, 72 h, read-out: IC50
Vero = experiment: Cytotoxicity against african green monkey Vero cells up to 9 uM after 48 hrs by neutral red assay; assay type: cell-based; details: chlorocebus sabaeus
[4] = Selectivity index, ratio of IC50 for african green monkey Vero cells to IC50 for chloroquine-sensitive Plasmodium falciparum D6; assay type: toxicity, cell-based; details: read-out: Ratio IC50
KB = experiment: Cytotoxicity against human KB cells after 48 hrs by MTT assay; assay type: functional, cell-based
MOLT-4 = experiment: Cytotoxicity against human MOLT4 cells after 48 hrs by MTT assay; assay type: functional, cell-based; details: MOLT-4, 48 h
DU-145 = experiment: Cytotoxicity against human DU145 cells after 48 hrs by MTT assay; assay type: functional, cell-based; details: DU-145, 48 h
PC-3 = experiment: Cytotoxicity against human PC3 cells after 48 hrs by MTT assay; assay type: functional, cell-based; details: PC-3, 48 h
HeLa = experiment: Cytotoxicity against human HeLa cells after 48 hrs by MTT assay; assay type: functional, cell-based

Row | SMILES | pIC50 (Plasmodium falciparum [1]) | selectivity ratio [2] | pIC50 (Plasmodium falciparum [3]) | Activity (Vero) | selectivity ratio [4] | pIC50 (KB) | pIC50 (MOLT-4) | pIC50 (DU-145) | pIC50 (PC-3) | pIC50 (HeLa) | IC50 (Plasmodium falciparum [1]) | IC50 (Plasmodium falciparum [3])
1 | C[C@@H]1CC[C@H]2[C@@H](C)C(=O)O[C@@H]3O[C@@]4(C)CC[C@@H]1[C@]32OO4 [ARTEMISININ] | 7.72 | > 800 | 7.96 | Non-toxic | > 470 | – | – | – | – | – | – | –
2 | COc1cc(/C=C2\CC/C(=C\c3ccc(OCCCN(C)C)c(OC)c3)C2=O)ccc1OCCCN(C)C | 5.94 | > 6 | 5.82 | Non-toxic | > 7.9 | 6.70 | 6.37 | 6.37 | 5.82 | 6.19 | – | –
3 | O=C1/C(=C/c2ccc(OCCCCN3CCCCC3)cc2)CCC/C1=C\c1ccc(OCCCCN2CCCCC2)cc1 | – | – | – | – | – | 5.60 | 6.14 | 5.68 | 5.82 | 5.44 | – | –
4 | COc1cc(/C=C2\CC/C(=C\c3ccc(OCCBr)c(OC)c3)C2=O)ccc1OCCBr | – | – | – | Non-toxic | – | – | – | – | – | – | Not Active | Not Active
5 | COc1cc(/C=C2\CC/C(=C\c3ccc(OCCn4ccnc4C)c(OC)c3)C2=O)ccc1OCCn1ccnc1C | 5.89 | > 6 | 5.86 | Non-toxic | > 6.5 | 5.47 | 7.00 | < 5.30 | < 5.30 | 6.05 | – | –
6 | COc1cc(/C=C2\CC/C(=C\c3ccc(OCCN(C)C)c(OC)c3)C2=O)ccc1OCCN(C)C | 6.36 | > 15.4 | 6.21 | Non-toxic | > 21.6 | < 5.30 | 7.52 | < 5.30 | < 5.30 | 6.30 | – | –
7 | O=C1/C(=C/c2ccc(OCCCCN3CCOCC3)cc2)CC/C1=C\c1ccc(OCCCCN2CCOCC2)cc1 | – | – | – | Non-toxic | – | – | – | – | – | – | Not Active | Not Active
8 | COc1cc(/C=C2\CC/C(=C\c3ccc(OCCn4ccnc4)c(OC)c3)C2=O)ccc1OCCn1ccnc1 | 5.66 | > 4.9 | 5.74 | Non-toxic | > 4 | – | – | – | – | – | – | –
9 | O=C1/C(=C/c2ccc(OCCCCN3CCOCC3)cc2)CCC/C1=C\c1ccc(OCCCCN2CCOCC2)cc1 | – | – | – | Non-toxic | – | – | – | – | – | – | Not Active | Not Active
10 | COc1cc(/C=C2\CC/C(=C\c3ccc(OCCCn4ccnc4)c(OC)c3)C2=O)ccc1OCCCn1ccnc1 | – | – | – | Non-toxic | – | – | – | – | – | – | Not Active | Not Active
11 | Cc1nccn1CCOc1ccc(/C=C2\CC/C(=C\c3ccc(OCCn4ccnc4C)cc3)C2=O)cc1 | 6.46 | > 21.6 | 6.37 | Non-toxic | > 26.4 | – | – | – | – | – | – | –
12 | COc1cc(/C=C2\CC/C(=C\c3ccc(OCCCCn4ccnc4C)c(OC)c3)C2=O)ccc1OCCCCn1ccnc1C | 5.40 | > 1.7 | 5.35 | Non-toxic | > 1.9 | – | – | – | – | – | – | –
13 | COc1cc(/C=C2\CC/C(=C\c3ccc(OCCN4CCCCC4)c(OC)c3)C2=O)ccc1OCCN1CCCCC1 | 6.30 | > 15.4 | 6.28 | Non-toxic | > 16.4 | 5.36 | 7.70 | < 5.30 | < 5.30 | 6.40 | – | –
14 | CN(C)CCCCOc1ccc(/C=C2\CC/C(=C\c3ccc(OCCCCN(C)C)cc3)C2=O)cc1 | – | – | – | – | – | 5.78 | 6.48 | 5.36 | 5.54 | 5.17 | – | –
15 | O=C1/C(=C/c2ccc(OCCCCn3ccnc3)cc2)CC/C1=C\c1ccc(OCCCCn2ccnc2)cc1 | 5.69 | > 2.5 | 5.45 | Non-toxic | > 4.3 | – | – | – | – | – | – | –
16 | O=C1/C(=C/c2ccc(OCCn3ccnc3)cc2)CC/C1=C\c1ccc(OCCn2ccnc2)cc1 | 6.35 | > 26.4 | 6.43 | Non-toxic | > 21.6 | – | – | – | – | – | – | –
17 | COc1cccc2c1C(=O)c1c(O)c3c(c(O)c1C2=O)C[C@@](O)(C(=O)CO)C[C@@H]3O[C@H]1C[C@H](N)[C@H](O)[C@H](C)O1 [DOXORUBICIN] | – | – | – | – | – | 6.48 | – | 6.70 | 6.70 | 5.66 | – | –
18 | Cc1nccn1CCCCOc1ccc(/C=C2\CC/C(=C\c3ccc(OCCCCn4ccnc4C)cc3)C2=O)cc1 | 5.96 | > 6 | 5.85 | Non-toxic | > 7.7 | – | – | – | – | – | – | –
19 | COc1cc(/C=C2\CCC/C(=C\c3ccc(OCCCN4CCCCC4)c(OC)c3)C2=O)ccc1OCCCN1CCCCC1 | – | – | – | – | – | 5.78 | 6.26 | 5.69 | 5.16 | 5.71 | – | –
20 | COc1cc(/C=C2\CC/C(=C\c3ccc(OCCCCN4CCCCC4)c(OC)c3)C2=O)ccc1OCCCCN1CCCCC1 | 5.76 | > 2.6 | 5.55 | Non-toxic | > 4.3 | 6.26 | 6.49 | 6.34 | 6.30 | 6.31 | – | –
21 | COc1cc(/C=C2\CC/C(=C\c3ccc(OCCN4CCOCC4)c(OC)c3)C2=O)ccc1OCCN1CCOCC1 | 5.51 | > 3.4 | 5.62 | Non-toxic | > 2.6 | – | – | – | – | – | – | –
22 | COc1cc(/C=C2\CC/C(=C\c3ccc(OCCCn4ccnc4C)c(OC)c3)C2=O)ccc1OCCCn1ccnc1C | 5.70 | > 2.6 | 5.52 | Non-toxic | > 4 | 5.70 | 6.18 | 5.41 | 6.70 | 5.50 | – | –
23 | CCN(CC)CCCC(C)Nc1ccnc2cc(Cl)ccc12 (configuration not stated) [CHLOROQUINE] | – | – | – | Non-toxic | – | – | – | – | – | – | – | –
24 | COc1cc(/C=C2\CC/C(=C\c3ccc(OCCCCN4CCCCCC4)c(OC)c3)C2=O)ccc1OCCCCN1CCCCCC1 | 5.87 | > 4 | 5.74 | Non-toxic | > 5.3 | 5.65 | 6.39 | 6.00 | 6.52 | 5.86 | – | –
25 | COc1cc(/C=C2\CC/C(=C\c3ccc(OCCCCN4CCOCC4)c(OC)c3)C2=O)ccc1OCCCCN1CCOCC1 | 6.16 | > 11.9 | 6.20 | Non-toxic | > 10.8 | 6.21 | 6.44 | 6.17 | 6.55 | 6.14 | – | –
26 | COc1cc(/C=C2\CC/C(=C\c3ccc(OCCCCn4ccnc4)c(OC)c3)C2=O)ccc1OCCCCn1ccnc1 | 6.28 | > 14 | 6.25 | Non-toxic | > 14.9 | – | – | – | – | – | – | –
